These results are taken from patent US20230255906A1, “Targeting Serpin B9 in Cancer” (The Brigham and Women`s Hospital, Inc., priority 2020, published 2023).

The test system of one test is B16 melanoma cells. Nature of the test: Caspase-3 activity assay (EnzChek Caspase-3 Assay Kit), caspase-3 induction in tumor cells. Also: test concentration or dose not given here. The test is classed as cell-based, mouse.
Settings: not given
The source says:
The EnzChek® Caspase-3 Assay Kit was used to detect apoptosis by assaying for increases in caspase-3 activities. The basis for the assay was rhodamine 110 bis-(N-CBZ-L-aspartyl-L-glutamyl-L-valyl-L-aspartic acid amide) (Z-DEVD-R110). This substrate is a bisamide derivative of rhodamine 110 (R110) containing DEVD peptides covalently linked to each of R110's amino groups, thereby suppressing the dye's visible absorption and its fluorescence. Upon enzymatic cleavage, the nonfluorescent bisamide substrate is converted in a two-step process first to a fluorescent monoamide and then to an even more fluorescent R110.
At least 1×10^6 cells of the lysate were used for each reaction. B16 cells were treated with compounds to induce apoptosis. A negative control was prepared by incubating cells in the absence of compounds. The cells were incubated with compounds for 24 hrs and washed in PBS. Each cell sample or control was resuspended in 50 μL of the 1×cell lysis buffer. Cells were lysed by incubating on ice for 30 minutes, and the lysed cells were centrifuged to pellet the cellular debris. 50 μL of the supernatant was transferred from each sample to individual microplate wells. 50 μL of the 1× cell lysis buffer was used as a no-enzyme control to determine the background fluorescence of the substrate. 50 μL of the 2×substrate working solution was added to each sample and control. The microplate was covered, and the samples were incubated at room temperature for approximately 30 minutes. The fluorescence was measured by a fluorescence microplate reader (excitation/emission ˜496/520 nm) using excitation and emission filters.
The ability of this small molecule inhibitor to inhibit intracellular Sb9 was then evaluated. As a marker for cell penetration, the induction of caspase-3 activity in B16 melanoma cells as a surrogate marker for increased GrB activity was measured.
The induction of caspase-3 activity in B16 melanoma cells as a surrogate marker for increased GrB activity was also measured for other small molecules (compounds of Formulas (V) and (VI) as described herein).
As for `COc1cccc(-c2nc3ccc(C(=O)NCC4CCOCC4)cc3o2)c1` [2-(3-methoxyphenyl)-N-(tetrahydro-2H-pyran-4-ylmethyl)-1,3-benzoxazole-6-carboxamide], the “Ratio of caspase-3 activity to Formula (III)” value (shortened to “Ratio of caspase-3 activity”) was determined as 0.09286. On the same count and under the same terms, the value for `CN(CCN1CCCCC1)C(=O)c1ccc2oc(-c3cccc(F)c3)nc2c1` [2-(3-fluorophenyl)-N-methyl-N-[2-(1-piperidinyl)ethyl]-1,3-benzoxazole-5-carboxamide] was 0.1405; that for `CCn1ccnc1CN(C)C(=O)c1ccc2nc(-c3cccc(OC)c3)oc2c1` [N-[(1-ethyl-1H-imidazol-2-yl)methyl]-2-(3-methoxyphenyl)-N-methyl-1,3-benzoxazole-6-carboxamide] was 1.071.

As to `CCC(=O)C1CCCN(C(=O)c2ccc3nc(-c4cccc(OC)c4)oc3c2)C1` (stereo not drawn) [1-(1-{[2-(3-methoxyphenyl)-1,3-benzoxazol-6-yl]carbonyl}-3-piperidinyl)-1-propanone], the “Ratio of caspase-3 activity” value is recorded as 0.1346.

As to `CCN1CCN(C(=O)c2ccc3oc(-c4cccc(F)c4)nc3c2)CC1` [5-[(4-ethyl-1-piperazinyl)carbonyl]-2-(3-fluorophenyl)-1,3-benzoxazole], the “Ratio of caspase-3 activity” value is 0.6541. Still for that read-out and setting: the result for `CCN(CCn1cccn1)C(=O)c1ccc2nc(-c3cccc(OC)c3)oc2c1` [N-ethyl-2-(3-methoxyphenyl)-N-[2-(1H-pyrazol-1-yl)ethyl]-1,3-benzoxazole-6-carboxamide] reads 0.1363. For `Cc1nc(CNC(=O)c2ccc3oc(-c4cccc(F)c4)nc3c2)cs1` [2-(3-fluorophenyl)-N-[(2-methyl-1,3-thiazol-4-yl)methyl]-1,3-benzoxazole-5-carboxamide], the “Ratio of caspase-3 activity” value is on record as 0.09788.

For the compound `Cc1cc(CNC(=O)c2ccc3oc(-c4cccc(F)c4)nc3c2)nn1C` [N-[(1,5-dimethyl-1H-pyrazol-3-yl)methyl]-2-(3-fluorophenyl)-1,3-benzoxazole-5-carboxamide], the “Ratio of caspase-3 activity” value worked out at 0.123. Consider `O=C(c1ccc2oc(-c3ccc(C(F)(F)F)cc3)nc2c1)N1CCC[C@H]1CO` [[(2S)-1-({2-[4-(trifluoromethyl)phenyl]-1,3-benzoxazol-5-yl}carbonyl)-2-pyrrolidinyl]methanol], for which the “Ratio of caspase-3 activity” value was 0.1353.

Take `CCc1ccc(CN(C)C(=O)c2ccc3oc(-c4cccc(F)c4)nc3c2)nc1` [N-[(5-ethyl-2-pyridinyl)methyl]-2-(3-fluorophenyl)-N-methyl-1,3-benzoxazole-5-carboxamide]: the “Ratio of caspase-3 activity” value came to 0.1324. Same read-out and setting: the result for `O=C(c1ccc2oc(-c3cccc(F)c3)nc2c1)N1CCC(O)(c2ccccc2)CC1` [1-{[2-(3-fluorophenyl)-1,3-benzoxazol-5-yl]carbonyl}-4-phenyl-4-piperidinol] reads 0.1773; that for `O=C(c1ccc2nc(-c3ccccc3)oc2c1)N1C[C@@H](F)C[C@H]1CO` [[(2S,4S)-4-fluoro-1-(2-phenyl-1,3-benzoxazole-6-carbonyl)pyrrolidin-2-yl]methanol], 0.09723; that for `O=C(NCCn1cccn1)c1ccc2oc(-c3cccc(F)c3)nc2c1` [2-(3-fluorophenyl)-N-[2-(1H-pyrazol-1-yl)ethyl]-1,3-benzoxazole-5-carboxamide], 0.4693.

Still in this test, the particulars now being: relative to compound of Formula (III).
As to `CCOc1ccc(C(=O)NCc2ccccc2)cc1O` [N-benzyl-4-ethoxy-3-hydroxybenzamide], the “Caspase-3 induction, Normalized to Formula (III) (%)” value was 19.0685%. On the same count and under the same terms, the result for `COCCCNC(=O)c1ccc2nc(C(F)(F)C(F)(F)F)oc2c1` [N-(3-methoxypropyl)-2-(1,1,2,2,2-pentafluoroethyl)-1,3-benzoxazole-6-carboxamide] reads −23.2124%; that for `COc1cc(C(=O)NCCN(C)C)ccc1OCCC(C)C` [N-[2-(dimethylamino)ethyl]-3-methoxy-4-(3-methylbutoxy)benzamide], 6.8323%.

`CCN(C)C(=O)c1cc2c(cc1O)OCO2` [N-ethyl-6-hydroxy-N-methyl-2H-1,3-benzodioxole-5-carboxamide]: the “Caspase-3 induction, Normalized to Formula (III) (%)” value is given as −3.424%. `O=C(c1cc2c(cc1O)OCO2)N1CCCC1` [6-(pyrrolidine-1-carbonyl)-2H-1,3-benzodioxol-5-ol]: the “Caspase-3 induction, Normalized to Formula (III) (%)” value is given as −35.7785%.

Consider `CN(C)c1nc2c(C(=O)N3CCCC3)cccc2o1` [N,N-dimethyl-4-(pyrrolidine-1-carbonyl)-1,3-benzoxazol-2-amine], for which the “Caspase-3 induction, Normalized to Formula (III) (%)” value is listed as −22.9856%.

Take `CN(C)c1nc2c(C(=O)NC3CCCC3)cccc2o1` [N-cyclopentyl-2-(dimethylamino)-1,3-benzoxazole-4-carboxamide]: the “Caspase-3 induction, Normalized to Formula (III) (%)” value is recorded as −20.9929%. Turning to `Cc1cc(O)c(O)cc1C(=O)N1CCCC1` [4-methyl-5-(pyrrolidine-1-carbonyl)benzene-1,2-diol], the “Caspase-3 induction, Normalized to Formula (III) (%)” value is recorded as −40.485%. With `COc1cc(C(=O)NCCN(C)C)cc(OC)c1O` [N-[2-(dimethylamino)ethyl]-4-hydroxy-3,5-dimethoxybenzamide], the “Caspase-3 induction, Normalized to Formula (III) (%)” value is listed as −5.767%. Same read-out and setting: the value for `CCOc1ccc(C(=O)NCC(C)C)cc1O` [4-ethoxy-3-hydroxy-N-(2-methylpropyl)benzamide] was −3.559%; that for `CCN(C)C(=O)c1cc(O)c(O)cc1C` [N-ethyl-4,5-dihydroxy-N,2-dimethylbenzamide] was −33.2116%; that for `COCCCNC(=O)c1cccc2oc(C)nc12` [N-(3-methoxypropyl)-2-methyl-1,3-benzoxazole-4-carboxamide] was −70.4086%.

As for `O=C(NCc1ccccc1)c1ccc2nc(S)oc2c1` [N-benzyl-2-sulfanyl-1,3-benzoxazole-6-carboxamide], the “Caspase-3 induction, Normalized to Formula (III) (%)” value is on record as −17.7286%. The same measure, in the same setting: the value for `Cc1nc2c(C(=O)NC3CCCC3)cccc2o1` [N-cyclopentyl-2-methyl-1,3-benzoxazole-4-carboxamide] was −30.2879%; that for `COc1cc(C(=O)NCC(C)C)cc(OC)c1O` [4-hydroxy-3,5-dimethoxy-N-(2-methylpropyl)benzamide] was −25.2896%; that for `COCCCNC(=O)c1cc2c(cc1O)OCO2` [6-hydroxy-N-(3-methoxypropyl)-2H-1,3-benzodioxole-5-carboxamide] was −41.8942%.

`CCOc1ccc(C(=O)NC2CCCC2)cc1O` [N-cyclopentyl-4-ethoxy-3-hydroxybenzamide]: the “Caspase-3 induction, Normalized to Formula (III) (%)” value was 4.1370%. Consider `CN(C)CCNC(=O)c1cc2c(cc1O)OCO2` [N-[2-(dimethylamino)ethyl]-6-hydroxy-2H-1,3-benzodioxole-5-carboxamide], for which the “Caspase-3 induction, Normalized to Formula (III) (%)” value is listed as 2.3274%. On to `COc1cc(C(=O)NC2CCCC2)cc(OC)c1O` [N-cyclopentyl-4-hydroxy-3,5-dimethoxybenzamide], for which the “Caspase-3 induction, Normalized to Formula (III) (%)” value was −24.5783%. Still for that read-out and setting: the result for `COc1cc(Br)c(C(=O)NCC(C)C)cc1OC` [2-bromo-4,5-dimethoxy-N-(2-methylpropyl)benzamide] reads −58.9646%.
